For 29 compounds, fold induction and IC50 results are on record in US20180273531A1, “PYRIMIDINE COMPOUND AND MEDICAL USE THEREOF” (Japan Tobacco Inc., priority 2004, published 2018).

Type in all cases: cell-based
For one experiment, the system named is p27 protein. Kind of experiment: p27 protein induction test (Western blotting). The settings on record: test substance (0.1 1M), 24 hrs, ACHN cells or HT-29 cells, compared to DMSO, n=2. The method, then:
ACHN cells or HT-29 cells were cultured in a 6 well plate at 2.5×10^5 cells/1.8 mL/well for 24 hrs, a test substance ([…]) dissolved in DMSO was added. After 24 hrs, cells were detached using trypsin-EDTA (ethylene diamine tetraacetic acid) and solubilized with NuPAGE LDS sample buffer (Invitrogen). Using an RC DC protein assay kit (BIO-RAD), the protein concentration of the sample was quantitated, and a sample in an amount corresponding to 10 μg of BSA (bovine serum albumin) was analyzed by Western blotting using an anti-p27 antibody. The density of the band stained with the anti-p27 antibody was measured by a densitometer to quantify the amount of p27 protein. As a control, DMSO was used and the test was performed with n=2 and the average protein amount was determined.

Experiment [1] concerns colorectal cancer cell line HT-29 cells. Put plainly: Growth inhibitory effect against cancer cell lines (3H-thymidine uptake), HT-29. Particulars: Homo sapiens, HT-29, inhibition of 3H-thymidine uptake; test substance 18 hrs, then 3H-thymidine 6 hrs; triplicate. Put shortly:
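IC50 = concentration reducing ^3H-thymidine incorporation to 50% of DMSO control, measured in triplicate. Compound added 24 hrs after plating (1.0×10^4 cells/well); label (0.25 μCi/well) given after 18 hrs of treatment, followed by 6 hrs further culture and scintillation counting of harvested cells.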

The test system of another experiment is p15 protein. Kind of experiment: Evaluation of p15 induction activity (Western blotting). The settings on record: test substance 0.1 μM, 24 hrs, ACHN cells or HT-29 cells, compared to DMSO, n=2. Put shortly: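 p15 protein quantified by densitometry of anti-p15 Western blots (10 μg protein per lane, mean of n=2). Samples came from HT-29 or ACHN cells given 0.1 μM compound for 24 h after 24 h plating, with DMSO as control.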
Background: A western blot detects proteins with antibodies after separation by electrophoresis.

The test system of experiment [2] is Renal cancer cell line ACHN cell. Put plainly: Growth inhibitory effect against cancer cell lines (3H-thymidine uptake), ACHN. The settings on record: Homo sapiens, ACHN. As to the method: Renal cancer cell line ACHN cell or colorectal cancer cell line HT-29 cells were cultured in a 96 well plate at 1.0×10^4 cells/90 μL/well for 24 hrs, then a test substance dissolved in DMSO (dimethyl sulfoxide) was added. After 18 hrs, ^3H-thymidine (0.25 μCi/well) was added and the cells were cultured for 6 hrs. Using a cell harvester, the cells were recovered on a UniFilter-96 GF/B glass filter and the ^3H radioactivity uptaken by the cells was measured by TopCount (Packard). As a control, DMSO was used and the activity of the test substance was expressed in the concentration (IC50) necessary for inhibiting ^3H radioactivity uptaken by the cell to 50% of that of the control group. The measurements were made in triplicate.

On to `CSc1ccc(Nc2c3c(=O)n(C4CC4)c(=O)n(-c4cccc(NC(C)=O)c4)c3c(C)c(=O)n2C)c(F)c1` [Example 4-105], for which the fold induction at 0.1 µM in the experiment on p27 protein and with p15 protein was no less than 1.5 in each case. The concentration for half-maximal inhibition (IC50) is less than 10 nM in experiment [1] and 10 to 100 nM in experiment [2].
Regarding `CN(C)c1ccc(Nc2cc(=O)n(C)c3c2c(=O)n(C2CC2)c(=O)n3-c2ccccc2F)cc1` [Example 1-114], the fold induction at 0.1 µM with p27 protein and in the experiment with p15 protein was no less than 1.5 throughout. Moreover, the IC50 in experiment [1] and in experiment [2] was 100 to 1000 nM each time.
As to `Cc1c(=O)n(C)c(Nc2ccc(I)cc2F)c2c(=O)n(C3CC3)c(=O)n(-c3ccc(F)c(NS(C)(=O)=O)c3)c12` [Example 4-101], the fold induction at 0.1 µM in the experiment on p27 protein and in the experiment with p15 protein was no less than 1.5 each time. For the same compound, the IC50 in experiment [1] is less than 10 nM; in experiment [2], 10 to 100 nM.
Regarding `CC(=O)Nc1cccc(-n2c(=O)n(C3CC3)c(=O)c3c(Nc4ccc(CCF)cc4F)cc(=O)n(C)c32)c1` [Example 1-342], the fold induction at 0.1 µM in the experiment on p27 protein and in the experiment with p15 protein was no less than 1.5 throughout. Besides, the half-inhibitory concentration (IC50) was less than 10 nM in experiment [1] and 100 to 1000 nM in experiment [2].
For the compound `CSc1ccc(Nc2cc(=O)n(C)c3c2c(=O)n(C2CC2)c(=O)n3-c2cccc(NS(C)(=O)=O)c2)c(F)c1` [Example 1-286], the fold induction at 0.1 µM in the experiment with p27 protein and with p15 protein was no less than 1.5 in each case. Also, the results for the IC50 in experiment [1] and in experiment [2] were less than 10 nM and 10 to 100 nM, respectively.
`Cc1c(=O)n(C)c(Nc2ccc(I)cc2F)c2c(=O)n(C3CC3)c(=O)n(-c3ccc(C(=O)O)cc3)c12` [Example 4-90]: the fold induction at 0.1 µM with p27 protein and in the experiment with p15 protein was no less than 1.5 each time. Besides, the IC50 in experiment [1] lay in the range of 10 to 100 nM; in experiment [2] it was 100 to 1000 nM.
For `CCc1ccc(Nc2c3c(=O)n(CC)c(=O)n(-c4cccc(NC(C)=O)c4)c3c(C)c(=O)n2C)c(F)c1` [Example 4-45], the fold induction at 0.1 µM in the experiment with p27 protein and with p15 protein was no less than 1.5 each time. The results for the concentration for half-maximal inhibition (IC50) in experiment [1] and in experiment [2] were 10 to 100 nM and 100 to 1000 nM, respectively.
For the compound `C=C(C)c1ccc(Nc2c3c(=O)n(C4CC4)c(=O)n(-c4cccc(NC(C)=O)c4)c3c(C)c(=O)n2C)c(F)c1` [Example 4-97], the fold induction at 0.1 µM in the experiment with p27 protein and with p15 protein was no less than 1.5 throughout. Further, the results for the concentration for half-maximal inhibition (IC50) in experiment [1] and in experiment [2] were less than 10 nM and 10 to 100 nM, respectively.
As for `C#Cc1ccc(Nc2c3c(=O)n(CC)c(=O)n(-c4cccc(NC(C)=O)c4)c3c(C)c(=O)n2C)c(F)c1` [Example 4-43], the fold induction at 0.1 µM in the experiment on p27 protein and in the experiment with p15 protein was no less than 1.5 throughout. Moreover, the IC50 in experiment [1] was in the range of 10 to 100 nM; in experiment [2] it was 100 to 1000 nM.
With `Cc1c(=O)n(C)c(Nc2ccc(I)cc2F)c2c(=O)n(C3CC3)c(=O)n(-c3ccc4cn[nH]c4c3)c12` [Example 4-115], the fold induction at 0.1 µM in the experiment with p27 protein and in the experiment on p15 protein was no less than 1.5 each time. Further, the IC50 in experiment [1] is less than 10 nM; in experiment [2] it was 10 to 100 nM.
`Cc1c(=O)n(C)c(Nc2ccc(I)cc2F)c2c(=O)n(C3CC3)c(=O)n(-c3cccc(S(N)(=O)=O)c3)c12` [Example 4-127]: the fold induction at 0.1 µM in the experiment with p27 protein and in the experiment with p15 protein was no less than 1.5 in each case. The IC50 in experiment [1] is less than 10 nM; in experiment [2] it was 10 to 100 nM.
Consider `Cn1c(=O)cc(Nc2ccc(C(F)(F)F)cc2F)c2c(=O)n(C3CC3)c(=O)n(-c3cccc(NS(C)(=O)=O)c3)c21` [Example 1-301], for which the fold induction at 0.1 µM in the experiment on p27 protein and in the experiment on p15 protein was no less than 1.5 throughout. Besides, the IC50 fell in the range of 10 to 100 nM in experiment [1] and 100 to 1000 nM in experiment [2].
Regarding `C#Cc1ccc(Nc2cc(=O)n(C)c3c2c(=O)n(C2CC2)c(=O)n3-c2cccc(NS(C)(=O)=O)c2)c(C)c1` [Example 1-336], the fold induction at 0.1 µM in the experiment with p27 protein and in the experiment with p15 protein was no less than 1.5 each time. The concentration for half-maximal inhibition (IC50) is less than 10 nM in experiment [1] and 10 to 100 nM in experiment [2].
Turning to `CCCc1ccc(Nc2c3c(=O)n(C4CC4)c(=O)n(-c4cccc(NC(C)=O)c4)c3c(C)c(=O)n2C)c(F)c1` [Example 4-53], the fold induction at 0.1 µM in the experiment with p27 protein and in the experiment on p15 protein was no less than 1.5 in each case. Also, the figures for the IC50 in experiment [1] and in experiment [2] were 10 to 100 nM and 100 to 1000 nM, respectively.
`Cc1c(=O)n(C)c(Nc2ccc(I)cc2F)c2c(=O)n(C3CC3)c(=O)n(-c3cc(Cl)cc(NS(C)(=O)=O)c3)c12` [Example 4-64]: the fold induction at 0.1 µM in the experiment on p27 protein and in the experiment with p15 protein was no less than 1.5 in each case. Also, the figures for the 50% inhibitory concentration (IC50) in experiment [1] and in experiment [2] were 10 to 100 nM and 100 to 1000 nM, respectively.
With `Cc1c(=O)n(C)c(Nc2ccc(I)cc2F)c2c(=O)n(C3CC3)c(=O)n(-c3cccc(NC(=O)c4cn[nH]c4)c3)c12` [Example 4-89], the fold induction at 0.1 µM in the experiment on p27 protein and with p15 protein was no less than 1.5 throughout. For the same compound, the IC50 in experiment [1] was in the range of 10 to 100 nM; in experiment [2], 100 to 1000 nM.
Regarding `CCC(=O)Nc1cccc(-n2c(=O)n(C3CC3)c(=O)c3c(Nc4ccc(I)cc4F)n(C)c(=O)c(C)c32)c1` [Example 4-60], the fold induction at 0.1 µM with p27 protein and with p15 protein was no less than 1.5 each time. In addition, the half-maximal inhibitory concentration (IC50) was less than 10 nM in experiment [1] and 10 to 100 nM in experiment [2].
In the case of `COCC(=O)Nc1cccc(-n2c(=O)n(C3CC3)c(=O)c3c(Nc4ccc(Br)cc4F)cc(=O)n(C)c32)c1` [Example 1-266], the fold induction at 0.1 µM in the experiment with p27 protein and in the experiment on p15 protein was no less than 1.5 each time. Moreover, the IC50 in experiment [1] is less than 10 nM; in experiment [2], 100 to 1000 nM.
`Cn1c(=O)cc(Nc2ccc(Br)cc2F)c2c(=O)n(C3CC3)c(=O)n(-c3cccc(S(=O)(=O)N4CCCC4)c3)c21` [Example 1-318]: the fold induction at 0.1 µM with p27 protein and with p15 protein was no less than 1.5 throughout. In addition, the values for the IC50 in experiment [1] and in experiment [2] were less than 10 nM and 100 to 1000 nM, respectively.
Take `Cn1c(=O)cc(Nc2ccc(Br)cc2F)c2c(=O)n(C3CC3)c(=O)n(-c3cccc(NCCN4CCOCC4)c3)c21` [Example 1-303]: the fold induction at 0.1 µM in the experiment on p27 protein is no less than 1.5. In addition, the results for the concentration for half-maximal inhibition (IC50) in experiment [1] and in experiment [2] were 10 to 100 nM and 100 to 1000 nM, respectively.
In the same order, the values of `CCS(=O)(=O)Nc1cccc(-n2c(=O)n(C3CC3)c(=O)c3c(Nc4ccc(Br)cc4F)cc(=O)n(C)c32)c1` [Example 1-262] are no less than 1.5, less than 10 nM and 10 to 100 nM.
Regarding `C#Cc1ccc(Nc2cc(=O)n(C)c3c2c(=O)n(C2CC2)c(=O)n3-c2cccc(NC(C)=O)c2)c(F)c1` [Example 1-310], the fold induction at 0.1 µM in the experiment on p27 protein is no less than 1.5. In addition, the figures for the half-maximal inhibitory concentration (IC50) in experiment [1] and in experiment [2] were less than 10 nM and 10 to 100 nM, respectively.
In the same order, the values of `CCCC(=O)Nc1cccc(-n2c(=O)n(C3CC3)c(=O)c3c(Nc4ccc(Br)cc4F)cc(=O)n(C)c32)c1` [Example 1-279] are no less than 1.5, 10 to 100 nM and 100 to 1000 nM.
In the same order, the values of `CCCS(=O)(=O)Nc1cccc(-n2c(=O)n(C3CC3)c(=O)c3c(Nc4ccc(I)cc4F)cc(=O)n(C)c32)c1` [Example 1-311] are no less than 1.5, less than 10 nM and less than 10 nM.
For `CCNC(=O)Nc1cccc(-n2c(=O)n(C3CC3)c(=O)c3c(Nc4ccc(Br)cc4F)cc(=O)n(C)c32)c1` [Example 1-307], in the experiment on p27 protein, the fold induction at 0.1 µM was no less than 1.5. For the same compound, the IC50 was 10 to 100 nM in experiment [1] and 100 to 1000 nM in experiment [2].
In the experiment with p27 protein, `CN1CCN(S(=O)(=O)c2cccc(-n3c(=O)n(C4CC4)c(=O)c4c(Nc5ccc(Br)cc5F)cc(=O)n(C)c43)c2)CC1` [Example 1-315] had a fold induction at 0.1 µM of no less than 1.5. In addition, the half-inhibitory concentration (IC50) was 10 to 100 nM in experiment [1] and 100 to 1000 nM in experiment [2].
On the same counts, the results for `Cn1c(=O)cc(Nc2ccc(Br)cc2F)c2c(=O)n(C3CC3)c(=O)n(-c3cccc(S(=O)(=O)N4CCOCC4)c3)c21` [Example 1-316] are no less than 1.5, 10 to 100 nM and 100 to 1000 nM.
`COCCN(C)c1cccc(-n2c(=O)n(C3CC3)c(=O)c3c(Nc4ccc(Br)cc4F)cc(=O)n(C)c32)c1` [Example 1-253] returned a fold induction at 0.1 µM in the experiment on p27 protein of no less than 1.5. Further, the 50% inhibitory concentration (IC50) in experiment [1] fell in the range of 10 to 100 nM; in experiment [2], 100 to 1000 nM.
On the same counts, the results for `Cn1c(=O)cc(Nc2ccc(I)cc2)c2c(=O)n(C3CC3)c(=O)n(-c3cccc(NS(C)(=O)=O)c3)c21` [Example 1-302] are no less than 1.5, less than 10 nM and 10 to 100 nM.

In general, fold induction refers to the ratio of treated to control signal. Broadly, the IC50 is the concentration that gives 50% inhibition. A high value points to a need for much substance.
